Data: article PMC12135508 (Antimicrobial Agents and Chemotherapy, 2025)
Read-outs that look alike come from different tables or passages of the source. Marks after values point to notes of the source that are not given here.

How the values were obtained:
[1] = tested on: E. coli TOP10F´ pMBLe/KPC-2; assay: MIC by broth microdilution, KPC-2-producing recombinant clone; format: cell-based; details: Escherichia coli, 50 µM IPTG, combinations given as β-lactam/inhibitor, read-out: Minimum inhibitory concentration
Experimental: (§1) Ligation mixtures were transformed in chemically competent E. coli TOP10F´ cells, and recombinant clones were selected in Lysogeny broth (LB) agar supplemented with 20 µg/mL gentamicin or 30 µg/mL kanamycin, depending on whether the constructions were obtained in pMBLe or pET24a(+) vectors, respectively. Recombinant plasmids of the selected clones were extracted and sequenced to verify the identity of bla genes and their proper insertion.
(§2) Minimum inhibitory concentrations (MICs) of different β-lactams and combinations with β-lactamase inhibitors were determined by an adaptation of the broth microdilution method by the CLSI ([49]), as follows. As we used E. coli recombinant clones harboring pMBLe/bla constructions, where protein production is regulated by isopropyl-β-D-thiogalactoside (IPTG) induction ([47]), antimicrobial susceptibility assays were performed using Mueller Hinton broth supplemented with 50 µM IPTG.

E. coli TOP10F´ = assay: microbe, parasite or virus in culture; format: cell-based; details: Escherichia coli, read-out: Minimum inhibitory concentration
Text: (§3) The KPC-2 gene was recovered from a clinical Klebsiella pneumoniae strain previously characterized in our laboratory ([46]). E. coli TOP10 F´ (Invitrogen, USA) and E. coli BL21(DE3) (Novagen, Germany) were used as hosts for transformation experiments, to obtain recombinant clones for antimicrobial susceptibility and overexpression assays, respectively. Escherichia coli ATCC 25922 and ATCC 35218 were used as control strains for antimicrobial susceptibility assays.
as §2, with “IPTG. Also, as control strains we included the E. coli Top10F’ (used as recipient strain in transformation assays), and the same strain transformed with the empty vector pMBLe, to have a comparison under the same isogenic background.” for “IPTG.”

[2] = tested on: E. coli TOP10F´ pMBLe/KPC-14; assay: MIC by broth microdilution, KPC-14-producing recombinant clone; format: cell-based, Escherichia coli; details: for MIC: Escherichia coli, E. coli TOP10F´ pMBLe/KPC-14, 50 µM IPTG, combinations given as β-lactam/inhibitor, read-out: Minimum inhibitory concentration; for MIC interpretation in KPC-14 recombinant clone: recombinant clone harboring KPC-14
Experimental: as §1, §2

E. coli TOP10F´/pMBLe = assay: MIC by broth microdilution, empty-vector control clone; format: cell-based; details: Escherichia coli; E. coli TOP10F´ with empty vector pMBLe; 50 µM IPTG; combinations given as β-lactam/inhibitor; read-out: Minimum inhibitory concentration
Text: as §3
as §2, with “IPTG. Also, as control strains we included the E. coli Top10F’ (used as recipient strain in transformation assays), and the same strain transformed with the empty vector pMBLe, to have a comparison under the same isogenic background.” for “IPTG.”

KPC-14 [3] = target: T1, KPC-14 (Klebsiella pneumoniae, UniProt Q9F663, DEL241-242); assay: Steady-state kinetics of β-lactam hydrolysis by KPC-14; format: biochemical; details: for kcat / Km: KPC-14
T1 construct: amplify the entire blaKPC-14 gene with the cloning primers; made in house; host or cells: E. coli BL21(DE3), pET24a(+)
T1 sequence (Q9F663 25-240, added parts left off, stated change not applied): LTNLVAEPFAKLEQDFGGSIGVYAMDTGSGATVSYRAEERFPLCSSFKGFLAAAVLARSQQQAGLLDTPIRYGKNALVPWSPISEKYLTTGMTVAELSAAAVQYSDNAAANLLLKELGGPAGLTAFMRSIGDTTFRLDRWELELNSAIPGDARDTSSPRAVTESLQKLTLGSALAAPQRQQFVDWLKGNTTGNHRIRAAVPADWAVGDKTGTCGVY
Text: (Eq. 1) v=(Vmax×[S]) / (Km+[S])
(Eq. 2) KI=KI obs / (1+[NCF]/KM(NCF))

KPC-14 [4] = tested on: KPC-14; set-up: method as in earlier work; details: ref 20 Oueslati et al., cited from earlier work
[5] = tested on: C[C@@H](O)[C@H]1C(=O)N2C(C(=O)O)=C(S[C@@H]3CN[C@H](C(=O)N(C)C)C3)[C@H](C)[C@H]12; assay: purified protein, by the assay type; details: other: KPC-2, 50 mM sodium phosphate pH 7.0, room temperature
[6] = tested on: CO/N=C(\C(=O)N[C@@H]1C(=O)N2C(C(=O)[O-])=C(C[N+]3(C)CCCC3)CS[C@H]12)c1csc(N)n1; assay: purified protein, by the assay type; details: other: KPC-2, 50 mM sodium phosphate pH 7.0, room temperature
[7] = tested on: C[C@@H](O)[C@H]1C(=O)N2C(C(=O)O)=C(SCCN=CN)C[C@H]12; assay: purified protein, by the assay type; details: other: KPC-2, 50 mM sodium phosphate pH 7.0, room temperature
[8] = tested on: CO/N=C(\C(=O)N[C@@H]1C(=O)N2C(C(=O)O)=C(CSc3nc(=O)c(=O)[nH]n3C)CS[C@H]12)c1csc(N)n1; assay: purified protein, by the assay type; details: other: KPC-2; determined with nitrocefin as reporter in competitive assays; pH 7.0
[9] = tested on: CCN1CCN(C(=O)N[C@@H](C(=O)N[C@@H]2C(=O)N3[C@@H]2SC(C)(C)[C@@H]3C(=O)O)c2ccccc2)C(=O)C1=O; assay: purified protein, by the assay type; details: other: KPC-2, 50 mM sodium phosphate pH 7.0, room temperature
[10] = tested on: CC(C)(O/N=C(\C(=O)N[C@@H]1C(=O)N2C(C(=O)[O-])=C(C[n+]3ccccc3)CS[C@H]12)c1csc(N)n1)C(=O)O; assay: purified protein, by the assay type; details: other: KPC-2; determined with nitrocefin as reporter in competitive assays; pH 7.0
[11] = tested on: CC(=O)OCC1=C(C(=O)O)N2C(=O)[C@@H](NC(=O)Cc3cccs3)[C@H]2SC1; assay: purified protein, by the assay type; details: other: KPC-2, 50 mM sodium phosphate pH 7.0, room temperature
[12] = tested on: CO/N=C(\C(=O)N[C@@H]1C(=O)N2C(C(=O)O)=C(COC(N)=O)CS[C@H]12)c1ccco1; assay: purified protein, by the assay type; details: other: KPC-2, 50 mM sodium phosphate pH 7.0, room temperature
KPC-14 [13] = target: T1, KPC-14; assay: Clavulanic acid inhibition and hydrolysis, KPC-14; format: biochemical
Experimental: (§4) To assess if KPC-14 shares the same behavior, KI app and kinact values for clavulanic acid of both enzymes were determined as previously reported ([32], [33]). The initial velocity (V0) of clavulanic acid hydrolysis was monitored at 235 nm ([32]), mixing an inhibitor concentration five times the KM determined and 100 nM of enzyme. V0 obtained under this condition was considered the Vmax and was used to determine the kcat for clavulanic acid.

KPC-2 [14] = target: T2, KPC-2 (Klebsiella pneumoniae, UniProt Q9F663); assay: Clavulanic acid inhibition and hydrolysis, KPC-2; format: biochemical
T2 construct: The complete blaKPC-2 gene was amplified from whole DNA; made in house; host or cells: E. coli BL21(DE3), pET24a(+)
T2 sequence (Q9F663 25-293 limits assumed): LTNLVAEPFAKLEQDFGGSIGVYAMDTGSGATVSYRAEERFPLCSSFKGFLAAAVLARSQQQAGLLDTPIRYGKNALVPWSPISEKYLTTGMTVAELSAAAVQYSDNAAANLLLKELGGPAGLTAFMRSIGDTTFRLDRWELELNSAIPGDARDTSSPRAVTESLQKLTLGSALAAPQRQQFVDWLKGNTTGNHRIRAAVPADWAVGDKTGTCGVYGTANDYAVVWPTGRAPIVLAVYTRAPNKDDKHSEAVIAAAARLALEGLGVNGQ
Experimental: as §4

KPC-2 [15] = details: ceftazidime as reporter substrate, ref 20 Oueslati et al.; cited from earlier work
[16] = E. coli TOP10F´ recipient strain, Mueller Hinton broth + 50 µM IPTG, combinations given as β-lactam/inhibitor
[17] = determined with nitrocefin as reporter in competitive assays
[18] = 50 mM sodium phosphate pH 7.0, room temperature

Work on CC(C)(O/N=C(\C(=O)N[C@@H]1C(=O)N2C(C(=O)[O-])=C(C[n+]3ccccc3)CS[C@H]12)c1csc(N)n1)C(=O)O [Ceftazidime] yielded an MIC [1] of 2 µg/mL, an MIC (E. coli TOP10F´; [16]) of 0.12 µg/mL and an MIC [2] of 32 µg/mL.

For C[C@H]1[C@H](NC(=O)/C(=N\OC(C)(C)C(=O)O)c2csc(N)n2)C(=O)N1S(=O)(=O)O [Aztreonam], the MIC (E. coli TOP10F´; [16]) was ≤ 0.25 µg/mL and the MIC (E. coli TOP10F´/pMBLe) was ≤ 0.25 µg/mL.

With CO/N=C(\C(=O)N[C@@H]1C(=O)N2C(C(=O)O)=C(CSc3nc(=O)c(=O)[nH]n3C)CS[C@H]12)c1csc(N)n1 [Ceftriaxone] the MIC (E. coli TOP10F´) was ≤ 0.25 µg/mL and the MIC (E. coli TOP10F´/pMBLe) was ≤ 0.25 µg/mL.

In the case of C[C@@H](O)[C@H]1C(=O)N2C(C(=O)O)=C(SCCN=CN)C[C@H]12 [Imipenem], the MIC [1] is reported as 2 µg/mL, the MIC (E. coli TOP10F´; [16]) is reported as 0.12 µg/mL and the “kcat/KM fold lower, KPC-14 vs KPC-2” value (KPC-14 [3]) is reported as 11 fold. For the same compound, the kcat (KPC-14 [3]) was “(5.93 ± 0.02) × 10^−3 s^−1”, the Km (KPC-14 [3]; [17]) was 0.55 ± 0.02 µM and the “turnover (kcat) fold decrease, KPC-14 vs KPC-2” value (KPC-14 [3]; this work) was 2,500 fold. The MIC [2] was 0.25 µg/mL, the “MIC interpretation in KPC-14 recombinant clone” value [2] was “within the susceptibility range” and the “turnover (kcat) fold reduction, KPC-14” value (KPC-14 [4]) was 1,000 fold. It also gave an MIC (E. coli TOP10F´/pMBLe) of 0.12 µg/mL.

For KPC-2 (Klebsiella pneumoniae), the Km [5] was 31 ± 2 µM, the kcat [5] was 2.85 ± 0.06 s⁻¹ and the kcat/Km [5] was 91000 ± 6000 M⁻¹ s⁻¹. For the same compound, the Km [6] was 59 ± 5 µM, the kcat [6] was 1.31 ± 0.04 s⁻¹ and the Km [7] was 120 ± 9 µM. The kcat [7] was 15 ± 0.4 s⁻¹, the kcat/Km [7] was 120000 ± 10000 M⁻¹ s⁻¹ and the Km [8] was 267 ± 29^a µM. The kcat [8] was 52 ± 7 s⁻¹, the kcat/Km [8] was 194000 ± 6000 M⁻¹ s⁻¹ and the Km [9] was 97 ± 12 µM. The kcat [9] was 29 ± 1 s⁻¹, the kcat/Km [9] was 300000 ± 40000 M⁻¹ s⁻¹ and the Km [10] was 1,319 ± 145^a µM. The kcat [10] was 0.9 ± 0.1 s⁻¹, the kcat/Km [10] was 830 ± 40 M⁻¹ s⁻¹ and the Km [11] was 159 ± 15 µM. The kcat [11] was 56 ± 2 s⁻¹, the kcat/Km [11] was 360000 ± 40000 M⁻¹ s⁻¹ and the Km [12] was 319 ± 48 µM. The kcat [12] was 85 ± 8 s⁻¹ and the kcat/Km [12] was 270000 ± 50000 M⁻¹ s⁻¹.

With CO/N=C(\C(=O)N[C@@H]1C(=O)N2C(C(=O)[O-])=C(C[N+]3(C)CCCC3)CS[C@H]12)c1csc(N)n1 [Cefepime] the MIC [1] was 1 µg/mL, the MIC (E. coli TOP10F´; [16]) was ≤ 0.25 µg/mL and the “hydrolytic efficiency (kcat/KM) fold increase, KPC-14 vs KPC-2” value (KPC-14 [3]) was 3 fold. It also gave a kcat (KPC-14 [3]) of 0.61 ± 0.03 s⁻¹, a Km (KPC-14 [3]; [18]) of 7 ± 1 µM and an MIC [2] of 1 µg/mL. The MIC (E. coli TOP10F´/pMBLe) was ≤ 0.25 µg/mL.

In the case of O=C(O)[C@H]1/C(=C/CO)O[C@@H]2CC(=O)N21 [clavulanic acid], the “hydrolysis of inhibitor monitored at 235 nm” value (KPC-14 [13]; inhibitor five times above Ki app, 100 nM enzyme) is reported as “No hydrolytic activity was detected”, the Ki (KPC-14 [13]; nitrocefin competition, read-out: Ki app) is reported as 8500 ± 1100 nM and the “concentration sufficient for complete inhibition of enzyme activity” value (KPC-14 [13]; nitrocefin hydrolysis time courses) is reported as 16 µM. For the same compound, the “inhibition of nitrocefin hydrolysis at 300 µM inhibitor” value (KPC-2 [14]; 300 µM clavulanic acid) was “residual hydrolytic activity”, the “kcat (turnover of inhibitor hydrolysis)” value (KPC-2 [14]; 235 nm, inhibitor five times above KM, 100 nM enzyme) was 11.60 ± 0.01 s⁻¹ and the “KM (Ki app expressed as KM)” value (KPC-2 [14]; nitrocefin competition) was 80000 ± 8000 nM.

For NC(=O)[C@@H]1CC[C@@H]2CN1C(=O)N2OS(=O)(=O)O [Avibactam, avibactam], the IC50 (KPC-2 [15]) is given as […] and the IC50 (KPC-14 [4]; KPC-14, ceftazidime as reporter substrate) is given as 107 nM.

For C[C@@H](O)[C@H]1C(=O)N2C(C(=O)O)=C(S[C@@H]3CN[C@H](C(=O)N(C)C)C3)[C@H](C)[C@H]12 [Meropenem], the MIC [1] was 1 µg/mL, the MIC (E. coli TOP10F´; [16]) was ≤ 0.03 µg/mL and the “kcat/KM fold lower, KPC-14 vs KPC-2” value (KPC-14 [3]) was 1,000 fold. The kcat (KPC-14 [3]) was “(8.8000 ± 0.0001) × 10^−4 s^−1”, the Km (KPC-14 [3]; [17]) was 10 ± 1 µM and the MIC [2] was ≤ 0.03 µg/mL. For the same compound, the “MIC interpretation in KPC-14 recombinant clone” value [2] was “within the susceptibility range” and the MIC (E. coli TOP10F´/pMBLe) was ≤ 0.03 µg/mL.

With CC1(C)S[C@@H]2[C@H](NC(=O)[C@H](N)c3ccccc3)C(=O)N2[C@H]1C(=O)O [Ampicillin] the MIC [1] was 1020 µg/mL, the MIC (E. coli TOP10F´; [16]) was 2 µg/mL and the “kcat/KM fold lower, KPC-14 vs KPC-2” value (KPC-14 [3]) was 24 fold. It also gave a kcat (KPC-14 [3]) of 0.83 ± 0.02 s⁻¹, a Km (KPC-14 [3]; [18]) of 95 ± 10 µM and an MIC [2] of 64 µg/mL.

Work on CC(=O)OCC1=C(C(=O)O)N2C(=O)[C@@H](NC(=O)Cc3cccs3)[C@H]2SC1 [Cephalothin] yielded an MIC [1] of 256 µg/mL, an MIC (E. coli TOP10F´; [16]) of 8 µg/mL and an MIC [2] of 64 µg/mL.
